The assay deals with L1210 leukemia ip in BDF1 mice, survival T/C. Description: NCI In Vivo Anticancer Drug Screen. Data for tumor model L1210 Leukemia (intraperitoneal) in B6D2F1 (BDF1) mice. The settings on record: endpoint: mean survival time, higher = longer survival. The method in brief: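 Antitumor effect is assessed in tumor-bearing animals. Survival in the compound arm is compared with a vehicle-dosed control arm and expressed as their quotient.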

Where [1] appears, read: dose: 100.0 mg/kg/injection, schedule: Q04DX003 (ip), vehicle: saline with Tween-80.
The mark [2] stands for this setting: dose: 200.0 mg/kg/injection, schedule: Q04DX003 (ip), vehicle: saline with Tween-80.
Where [3] appears, read: dose: 400.0 mg/kg/injection, schedule: Q04DX003 (ip), vehicle: saline with Tween-80.
The mark [4] stands for this setting: dose: 50.0 mg/kg/injection, schedule: Q01DX009 (ip), vehicle: Klucel (hydroxypropylcellulose) (HPC).
[5] abbreviates: dose: 100.0 mg/kg/injection, schedule: Q01DX009 (ip), vehicle: Klucel (hydroxypropylcellulose) (HPC).
Setting [6] is: dose: 200.0 mg/kg/injection, schedule: Q01DX009 (ip), vehicle: Klucel (hydroxypropylcellulose) (HPC).

“And” between values parts separate entries of the source, which are not always exact repeats. Identical values can stand only once. Inconclusive results and toxic doses are left out.

Consider `CC1CN1c1cc(O)c(N2CC2C)cc1O` (stereo not given), for which the T/C was 100 % of control (dose: 0.25 mg/kg/injection, schedule: Q01DX009 (ip), vehicle: saline); 92 % of control (dose: 0.5 mg/kg/injection, schedule: Q01DX009 (ip), vehicle: saline); 110 % of control (dose: 0.5 mg/kg/injection, schedule: Q01DX Z (ip), vehicle: methylcellulose (MC)); 111 % of control (dose: 0.8 mg/kg/injection, schedule: Q01DX Z (ip), vehicle: methylcellulose (MC)); 118 % of control (dose: 1.0 mg/kg/injection, schedule: Q01DX009 (ip), vehicle: saline); 115 % of control (dose: 1.2 mg/kg/injection, schedule: Q01DX Z (ip), vehicle: carboxymethylcellulose (CMC)). Besides, the T/C (dose: 1.2 mg/kg/injection, schedule: Q01DX Z (ip), vehicle: methylcellulose (MC)) is 109 % of control and 123 % of control; the T/C (dose: 1.8 mg/kg/injection, schedule: Q01DX Z (ip), vehicle: carboxymethylcellulose (CMC)) was 121 % of control; the T/C (dose: 2.0 mg/kg/injection, schedule: Q01DX009 (ip), vehicle: saline) was 118 % of control; the T/C (dose: 2.7 mg/kg/injection, schedule: Q01DX Z (ip), vehicle: methylcellulose (MC)) is 171 % of control; the T/C (dose: 4.0 mg/kg/injection, schedule: Q01DX Z (ip), vehicle: carboxymethylcellulose (CMC)) is 120 % of control; the T/C (dose: 4.0 mg/kg/injection, schedule: Q01DX Z (ip), vehicle: methylcellulose (MC)) was 109 % of control and 155 % of control and 212 % of control. Also, the T/C was 150 % of control (dose: 5.0 mg/kg/injection, schedule: Q01DX009 (ip), vehicle: saline); 108 % of control (dose: 6.0 mg/kg/injection, schedule: Q01DX Z (ip), vehicle: carboxymethylcellulose (CMC)); 172 % of control and 180 % of control (dose: 6.0 mg/kg/injection, schedule: Q01DX Z (ip), vehicle: methylcellulose (MC)); 155 % of control and 174 % of control (dose: 9.0 mg/kg/injection, schedule: Q01DX Z (ip), vehicle: methylcellulose (MC)); 121 % of control (dose: 10.0 mg/kg/injection, schedule: Q01DX009 (ip), vehicle: saline); 114 % of control (dose: 13.5 mg/kg/injection, schedule: Q01DX Z (ip), vehicle: methylcellulose (MC)). The T/C by setting is: (dose: 20.0 mg/kg/injection, schedule: Q01DX009 (ip), vehicle: saline) 101 % of control; (dose: 20.0 mg/kg/injection, schedule: Q01DX Z (ip), vehicle: methylcellulose (MC)) 90 % of control.
In the case of `CCSC1=C(N2CC2)C(=O)C(SCC)=C(N2CC2)C1=O`, the T/C runs as follows: (dose: 150.0 mg/kg/injection, schedule: Q04DX003 (ip), vehicle: saline) 96 % of control; (dose: 225.0 mg/kg/injection, schedule: Q04DX003 (ip), vehicle: saline) 96 % of control.
Turning to `COc1cccc(-n2cccc2)c1`, the T/C runs as follows: (dose: 100.0 mg/kg/injection, schedule: Q01DX001 (ip), vehicle: other) 103 % of control; (dose: 200.0 mg/kg/injection, schedule: Q01DX001 (ip), vehicle: other) 105 % of control; (dose: 400.0 mg/kg/injection, schedule: Q01DX001 (ip), vehicle: other) 108 % of control.
On to `C=C(C)C(=O)OCC(O)C[N+](C)(C)C` (stereo not given), for which the T/C reads like this: (dose: 25.0 mg/kg/injection, schedule: Q01DX009 (ip), vehicle: saline) 98 % of control; (dose: 50.0 mg/kg/injection, schedule: Q01DX009 (ip), vehicle: saline) 101 % of control; (dose: 75.0 mg/kg/injection, schedule: Q01DX001 (ip), vehicle: saline) 101 % of control; (dose: 100.0 mg/kg/injection, schedule: Q01DX009 (ip), vehicle: saline) 97 % of control; (dose: 150.0 mg/kg/injection, schedule: Q01DX001 (ip), vehicle: saline) 98 % of control.
`Cc1cn(C2CC(O)C(COP(=O)(N3CC3(C)C)N3CC3(C)C)O2)c(=O)[nH]c1=O` (stereo not given): the T/C (dose: 50.0 mg/kg/injection, schedule: Q04DX002 (ip), vehicle: saline) was 94 % of control; the T/C (dose: 100.0 mg/kg/injection, schedule: Q04DX002 (ip), vehicle: saline) is 105 % of control; the T/C (dose: 200.0 mg/kg/injection, schedule: Q04DX002 (ip), vehicle: saline) is 123 % of control.
Consider `O=S1(=O)c2ccc(cc2)N=CC=Nc2ccc1cc2`, for which the T/C is, setting by setting: under setting [1], 92 % of control; under setting [2], 90 % of control; under setting [3], 89 % of control.
With `CNc1ccc(Cl)cc1-c1nc2ccccc2[nH]1`, the T/C is, setting by setting: under setting [4], 109 % of control; under setting [5], 102 % of control; under setting [6], 102 % of control.
Take `CC(=O)OCC1OC(Oc2c(Br)cc(Br)cc2Br)C(OC(C)=O)C(OC(C)=O)C1OC(C)=O` (stereo not given): the T/C is, setting by setting: under setting [1], 96 % of control; under setting [2], 101 % of control; under setting [3], 95 % of control.
Consider `CC(=O)O/N=C\C(C)=N\OC(C)=O`, for which the T/C by setting is: (dose: 15.0 mg/kg/injection, schedule: Q01DX Z (ip), vehicle: saline) 109 % of control; (dose: 30.0 mg/kg/injection, schedule: Q01DX Z (ip), vehicle: saline) 109 % of control; (dose: 60.0 mg/kg/injection, schedule: Q01DX Z (ip), vehicle: saline) 107 % of control; (dose: 120.0 mg/kg/injection, schedule: Q01DX Z (ip), vehicle: saline) 107 % of control.
Consider `Cc1c(Cl)cccc1NC(=O)OC(C)C`, for which the T/C reads like this: (dose: 100.0 mg/kg/injection, schedule: Q04DX003 (ip), vehicle: Klucel (hydroxypropylcellulose) (HPC)) 106 % of control; (dose: 200.0 mg/kg/injection, schedule: Q04DX003 (ip), vehicle: Klucel (hydroxypropylcellulose) (HPC)) 97 % of control; (dose: 400.0 mg/kg/injection, schedule: Q04DX003 (ip), vehicle: Klucel (hydroxypropylcellulose) (HPC)) 97 % of control.
Turning to `CN(C)/N=N\N(C)C`, the T/C is 98 % of control (dose: 25.0 mg/kg/injection, schedule: Q01DX009 (ip), vehicle: Klucel (hydroxypropylcellulose) (HPC)); 103 % of control under setting [4]; 101 % of control under setting [5].
In the case of `O=C(CS(=O)(=O)O)c1ccc(Br)cc1`, the T/C was 97 % of control (dose: 100.0 mg/kg/injection, schedule: Q04DX002 (ip), vehicle: saline with Tween-80); 97 % of control (dose: 200.0 mg/kg/injection, schedule: Q04DX002 (ip), vehicle: saline with Tween-80); 94 % of control (dose: 400.0 mg/kg/injection, schedule: Q04DX002 (ip), vehicle: saline with Tween-80).
`CCNC(c1ccccc1)C(O)c1ccccc1` (stereo not given): the T/C (dose: 50.0 mg/kg/injection, schedule: Q04DX002 (ip), vehicle: Klucel (hydroxypropylcellulose) (HPC)) was 94 % of control; the T/C under setting [5] was 104 % of control; the T/C (dose: 100.0 mg/kg/injection, schedule: Q04DX002 (ip), vehicle: Klucel (hydroxypropylcellulose) (HPC)) is 105 % of control; the T/C under setting [6] is 102 % of control.
As for `COc1c2c(c(OC)c3c1c(=O)c1ccccc1n3C)OCO2`, the T/C by setting is: (dose: 100.0 mg/kg/injection, schedule: Q01DX001 (ip), vehicle: carboxymethylcellulose (CMC)) 102 % of control; (dose: 200.0 mg/kg/injection, schedule: Q01DX001 (ip), vehicle: carboxymethylcellulose (CMC)) 98 % of control; (dose: 300.0 mg/kg/injection, schedule: Q01DX001 (ip), vehicle: carboxymethylcellulose (CMC)) 102 % of control; (dose: 400.0 mg/kg/injection, schedule: Q01DX001 (ip), vehicle: carboxymethylcellulose (CMC)) 96 % of control; (dose: 500.0 mg/kg/injection, schedule: Q01DX001 (ip), vehicle: carboxymethylcellulose (CMC)) 93 % of control.
With `Nc1cccc(NC=O)c1`, the T/C reads like this: (dose: 25.0 mg/kg/injection, schedule: Q01DX009 (ip), vehicle: saline with Tween-80) 102 % of control; (dose: 50.0 mg/kg/injection, schedule: Q01DX009 (ip), vehicle: saline with Tween-80) 104 % of control.
Consider `O=[N+]([O-])c1cc(/C=N/N2CCN(/N=C/c3ccc(Cl)c([N+](=O)[O-])c3)CC2)ccc1Cl`, for which the T/C runs as follows: (dose: 100.0 mg/kg/injection, schedule: Q01DX001 (ip), vehicle: saline) 96 % of control; (dose: 200.0 mg/kg/injection, schedule: Q01DX001 (ip), vehicle: saline) 93 % of control; (dose: 400.0 mg/kg/injection, schedule: Q01DX001 (ip), vehicle: saline) 90 % of control.
For the compound `CCCCN1c2ccccc2NP1(=O)c1ccccc1` (stereo not given), the T/C runs as follows: under setting [1], 94 % of control; under setting [2], 96 % of control; under setting [3], 97 % of control.
Consider `OC1OC(CF)C(O)C(O)C1O` (stereo not given), for which the T/C is 104 % of control (dose: 100.0 mg/kg/injection, schedule: Q04DX003 (ip), vehicle: saline); 115 % of control (dose: 200.0 mg/kg/injection, schedule: Q04DX003 (ip), vehicle: saline); 118 % of control (dose: 400.0 mg/kg/injection, schedule: Q04DX003 (ip), vehicle: saline).

The values are drawn from PubChem BioAssay AID248 (DTP/NCI, 2004).
